# Results as given in patent US20110028715A1, “NOVEL ADENINE COMPOUND” (priority 2007, published 2011).
# Marks after values point to notes of the source that are not given here.
# System: IFN-α
# Assay: IFN-α production inducing activity in mice (plasma IFN-α by L929/2-5AS-Luc bioassay)
# Format: in vivo, B6C3F1 mice
# Conditions: 3 hours after 1 mg/kg intravenously via tail vein, mean ± standard deviation (n = 3)
# Description: A test compound was administered to B6C3F1 mice (Charles River Japan, Inc.) via tail vein at the dose of 1 mg/kg intravenously. After 3 hours, total blood was collected into a sample tube containing heparin. Plasma was prepared from total blood after centrifugation (3,000 rpm, 10 min, at room temperature) and stored at −20° C.
# Murine fibroblasts (L929/2-5AS-Luc), which constitutively expressed luciferase gene in which the promoter region for 2′-5′-oligoadenylate synthase was cloned, was seeded into 96-well plate at 4×10^4 cells/well, and cultured for overnight with diluted plasma or mouse IFN-α. After Luclite (Perkin Elmer) was added to the plate, the luciferase activity was measured with TopCount (Perkin Elmer).
# The concentration of IFN-α in plasma was calculated by linear regression of logarithmic transformed concentration of mouse IFN-α and the luciferase activity.
row,Compound,Mouse IFN-α
1,"COCCOc1nc(N)c2[nH]c(=O)n(Cc3ccc(N4CCN(C)CC4)nc3)c2n1 [Example 42, 6-Amino-2-(2-methoxyethoxy)-9-[6-(4-methylpiperazin-1-yl)pyridin-3-ylmethyl]-7,9-dihydropurin-8-one]",30.0 ± 7.3 IU/mL
2,"CCCCNc1nc(N)c2[nH]c(=O)n(Cc3ccc(OCCN(C)C)nc3)c2n1 [Example 54, 6-Amino-2-butylamino-9-[6-(2-dimethylaminoethoxy)pyridin-3-ylmethyl]-7,9-dihydropurin-8-one]",53.6 ± 6.5^a) IU/mL
3,"COCCOc1nc(N)c2[nH]c(=O)n(Cc3ccc(CN4CCCCC4)cc3)c2n1 [Example 10, 6-Amino-2-(2-methoxyethoxy)-9-(4-piperidin-1-ylmethylbenzyl)-7,9-dihydropurin-8-one]",7.3 ± 1.6 IU/mL

# Target: T1, human TLR7 (Homo sapiens, UniProt Q9NYK1)
# T1 construct: expressed in transfected cells; host or cells: HEK 293 (hTLR7/seap-293)
# T1 sequence (Q9NYK1 27-1049): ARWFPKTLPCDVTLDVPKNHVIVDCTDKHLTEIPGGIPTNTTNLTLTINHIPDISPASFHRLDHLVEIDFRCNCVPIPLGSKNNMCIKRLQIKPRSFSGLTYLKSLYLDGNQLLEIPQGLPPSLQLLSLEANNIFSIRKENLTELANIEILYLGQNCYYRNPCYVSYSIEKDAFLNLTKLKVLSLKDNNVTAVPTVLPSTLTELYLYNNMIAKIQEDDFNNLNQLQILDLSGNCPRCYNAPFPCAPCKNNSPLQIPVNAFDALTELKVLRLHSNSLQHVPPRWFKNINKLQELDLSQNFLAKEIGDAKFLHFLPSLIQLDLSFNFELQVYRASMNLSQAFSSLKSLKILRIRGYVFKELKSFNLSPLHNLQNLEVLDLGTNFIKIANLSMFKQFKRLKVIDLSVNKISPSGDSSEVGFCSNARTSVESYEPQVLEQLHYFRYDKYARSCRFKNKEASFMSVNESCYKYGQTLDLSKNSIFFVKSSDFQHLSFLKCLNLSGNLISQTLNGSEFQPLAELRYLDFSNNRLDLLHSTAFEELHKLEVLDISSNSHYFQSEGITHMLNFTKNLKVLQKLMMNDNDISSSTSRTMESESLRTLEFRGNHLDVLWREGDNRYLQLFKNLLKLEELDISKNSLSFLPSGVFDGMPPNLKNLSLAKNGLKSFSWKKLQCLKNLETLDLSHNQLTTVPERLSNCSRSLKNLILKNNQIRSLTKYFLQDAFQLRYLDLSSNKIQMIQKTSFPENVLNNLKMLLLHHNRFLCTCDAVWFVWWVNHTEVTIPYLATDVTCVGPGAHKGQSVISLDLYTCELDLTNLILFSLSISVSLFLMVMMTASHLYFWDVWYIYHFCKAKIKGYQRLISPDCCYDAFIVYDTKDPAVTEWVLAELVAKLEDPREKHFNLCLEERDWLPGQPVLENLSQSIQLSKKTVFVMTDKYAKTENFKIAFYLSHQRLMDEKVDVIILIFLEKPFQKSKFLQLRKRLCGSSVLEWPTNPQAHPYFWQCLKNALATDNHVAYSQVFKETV
# Assay: Human TLR7 reporter assay (NF-kB-SEAP, HEK 293 cells)
# Format: cell-based
# Conditions: Table 1; HEK 293 hTLR7/NF-kB-SEAP reporter, 20 hours incubation; read-out: human TLR7 binding activity EC50
# Description: HEK 293 cells, to which human TLR7 or rat TLR7 plasmid and reporter plasmid (NF-kB-SEAP) were stably introduced, were suspended in DMEM medium (10% FBS, 1% NEAA, 10 ug/mL blastocidin S HCl, 100 ug/mL Zeocin), and seeded into a 96-well plate in an amount of 90 μl/well (hTLR7/seap-293: 20,000 cells/well, rTLR7/seap-293: 25,000 cells/well).
# A test compound (DMSO stock solution (2 μl) was diluted into 100-fold with the medium (200 μl)) was added into the cells seeded in the 96-well plate in an amount of 10 μl/well (final concentration: 1 nM to 10 μM, common ratio: 3). The side of the plate was lightly patted for stiffing the content of the plate, and the plate was incubated for 20 hours in a CO2 incubator. To the cells that were stimulated with a test compound was added a substrate for reporter assay (substrate for SEAP, pNPP) in an amount of 50 μl/well. The minute later after the addition of the substrate, the solution for reaction quenching (4N NaOH) was added to the plate in an amount of ? 50 μl/well in order to quench the enzyme reaction. A top seal A was applied to the plate, and the absorbance at 405 nm was measured by a microplate reader.
# In a similar manner to Example 85, the following compounds were tested.
row,Compound,EC50 [nM]
1,"CCCCNc1nc(N)c2[nH]c(=O)n(Cc3ccc(CN4CCCCC4)cc3)c2n1 [Example 29, 6-Amino-2-butylamino-9-(4-piperidin-1-ylmethylbenzyl)-7,9-dihydropurin-8-one]",7.6
2,"CCCCOc1nc(N)c2[nH]c(=O)n(Cc3ccc(CN4CCC(N(C)C)CC4)cc3)c2n1 [Example 4, 6-Amino-2-butoxy-9-[4-(4-dimethylaminopiperidin-1-ylmethyl)benzyl]-7,9-dihydropurin-8-one]",2.5
3,"COCCOc1nc(N)c2[nH]c(=O)n(Cc3ccc(CN4CCC(Oc5ccccc5)CC4)cc3)c2n1 [Example 13, 6-Amino-2-(2-methoxyethoxy)-9-[4-(4-phenoxypiperidin-1-ylmethyl)benzyl]-7,9-dihydropurin-8-one]",18.7
4,"CCCCOc1nc(N)c2[nH]c(=O)n(Cc3ccc(CN4CCCCC4)cc3)c2n1 [Example 2, 6-Amino-2-butoxy-9-(4-piperidin-1-ylmethylbenzyl)-7,9-dihydropurin-8-one]",0.9
5,"CCCCOc1nc(N)c2nc(O)n(Cc3ccc(CN4CCOCC4)cc3)c2n1 [Example 1, 6-Amino-2-butoxy-9-(4-morpholin-4-ylmethylbenzyl)-7,9-dihydropurin-8-one]",7.2
6,"CCOc1nc(N)c2[nH]c(=O)n(Cc3ccc(CN4CCOCC4)cc3)c2n1 [Example 68, 6-Amino-2-ethoxy-9-(4-morpholin-4-ylmethylbenzyl)-7,9-dihydropurin-8-one]",5.5
7,"CCCCNc1nc(N)c2[nH]c(=O)n(Cc3cnc(OCCN(C)C)c(Cl)c3)c2n1 [Example 58, 6-Amino-2-butylamino-9-[5-chloro-6-(2-dimethylaminoethoxy)pyridin-3-ylmethyl]-7,9-dihydropurin-8-one]",3.7
8,"CCCCOc1nc(N)c2[nH]c(=O)n(Cc3ccc(CN4CCC(N(C)C)C4)cc3)c2n1 (centres unmarked) [Example 5, 6-Amino-2-butoxy-9-[4-(3-dimethylaminopyrrolidin-1-ylmethyl)benzyl]-7,9-dihydropurin-8-one]",2.7
9,"Nc1nc(OCCCC(F)(F)F)nc2c1[nH]c(=O)n2Cc1ccc(CN2CCOCC2)cc1 [Example 23, 6-Amino-9-(4-morpholin-4-ylmethylbenzyl)-2-(4,4,4-trifluorobutoxy)-7,9-dihydropurin-8-one]",14.8
10,"CCCCOc1nc(N)c2[nH]c(=O)n(Cc3ccc(OCCCN(C)C)cc3)c2n1 [Example 37, 6-Amino-2-butoxy-9-[4-(3-dimethylaminopropoxy)benzyl]-7,9-dihydropurin-8-one]",1.1
11,"CCCCOc1nc(N)c2[nH]c(=O)n(Cc3ccc(CN4CCN(C)CC4)cc3)c2n1 [Example 3, 6-Amino-2-butoxy-9-[4-(4-methylpiperazin-1-ylmethyl)benzyl]-7,9-dihydropurin-8-one]",1.8
12,"CCCCNc1nc(N)c2[nH]c(=O)n(Cc3cnc(N4CCN(C)CC4)c(Cl)c3)c2n1 [Example 56, 6-Amino-2-butylamino-9-[5-chloro-6-(4-methylpiperazin-1-yl)pyridin-3-ylmethyl]-7,9-dihydropurin-8-one]",1.3

# Same assay, conditions: Table 6; tested in a similar manner to Example 85; read-out: human TLR7 binding activity EC50
row,EC50 [nM],Compound
1,16.5,"COCCOc1nc(N)c2[nH]c(=O)n(Cc3ccc(OCC(C)(C)CN(C)C)nc3)c2n1 [Example 110, 6-Amino-9-[6-(3-dimethylamino-2,2-dimethylpropoxy)pyridin-3-ylmethyl]-2-(2-methoxyethoxy)-7,9-dihydropurin-8-one]"
2,19.6,"CCCCNc1nc(N)c2[nH]c(=O)n(Cc3ccc(OCCCN(C)C)nc3)c2n1 [Example 116, 6-Amino-2-butylamino-9-[6-(3-dimethylaminopropoxy)pyridin-3-ylmethyl]-7,9-dihydropurin-8-one]"
3,3.3,"COCCOc1nc(N)c2[nH]c(=O)n(Cc3cnc(N4CCN(C)CC4)c(Cl)c3)c2n1 [Example 105, 6-Amino-9-[5-chloro-6-(4-methylpiperazin-1-yl)pyridin-3-ylmethyl]-2-(2-methoxyethoxy)-7,9-dihydropurin-8-one]"
4,6.9,"COCCOc1nc(N)c2[nH]c(=O)n(Cc3cnc(OC4CCN(C)CC4)c(Cl)c3)c2n1 [Example 123, 6-Amino-9-[5-chloro-6-(1-methylpiperidin-4-yloxy)pyridin-3-ylmethyl]-2-(2-methoxyethoxy)-7,9-dihydropurin-8-one]"
5,14,"COCCOc1nc(N)c2[nH]c(=O)n(Cc3cnc(OCCN(C)C)c(Cl)c3)c2n1 [Example 118, 6-Amino-9-[5-chloro-6-(2-dimethylaminoethoxy)pyridin-3-ylmethyl]-2-(2-methoxyethoxy)-7,9-dihydropurin-8-one]"
6,3.7,"COCCOc1nc(N)c2[nH]c(=O)n(Cc3cnc(OCC(C)(C)CN(C)C)c(Cl)c3)c2n1 [Example 120, 6-Amino-9-[5-chloro-6-(3-dimethylamino-2,2-dimethylpropoxy)pyridin-3-ylmethyl]-2-(2-methoxyethoxy)-7,9-dihydropurin-8-one]"

row,Compound,EC50 [nM]
1,"CCCCOc1nc(N)c2[nH]c(=O)n(Cc3ccc(CN4CCN(C(=O)CN(C)C)CC4)cc3)c2n1 [Example 94, 6-Amino-2-butoxy-9-{4-[4-(2-dimethylaminoacetyl)piperazin-1-ylmethyl]benzyl}-7,9-dihydropurin-8-one]",2.5
2,"CCCCOc1nc(N)c2[nH]c(=O)n(Cc3ccc(N(C)CCN(C)C)nc3)c2n1 [Example 104, 6-Amino-2-butoxy-9-{6-[(2-dimethylaminoethyl)methylamino]pyridin-3-ylmethyl}-7,9-dihydropurin-8-one]",5.3
